The term ED50 denotes the dose at which the effect has come halfway, by size or by number of responders. High values mean weaker potency, low ones greater potency.

Our source for the ED50 values is ChEMBL document CHEMBL1122146, “Conformation-activity study of methadone and related compounds” (J Med Chem, 1982).

The structures appear in SMILES notation. Bounds are passed on as bounds.

This assay deals with Mu-type opioid receptor (Cavia porcellus) (UniProt P97266). As to the kind of experiment: Evaluated for analgesic activity as effective dose. In kind it is functional.
Mu-type opioid receptor (Cavia porcellus), sequence (P97266 whole entry): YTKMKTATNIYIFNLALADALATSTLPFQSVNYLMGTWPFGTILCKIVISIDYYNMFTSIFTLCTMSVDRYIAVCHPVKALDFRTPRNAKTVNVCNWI
`CCC(O)C(C[C@H](C)NC)(c1ccccc1)c1ccccc1` (some centres not stated) gave a median effective dose (ED50) of 10.3 mg/kg. For `CCC(=O)C(c1ccccc1)(c1ccccc1)[C@H](C)CN(C)C`, the ED50 stood at 1.2 mg/kg. `CCC(=O)C(CC(C)N(C)C)(c1ccccc1)c1ccccc1` (stereo in doubt; threo): the ED50 is over 50 mg/kg. The value for `CCC(=O)C(CC(C)N(C)C)(c1ccccc1)c1ccccc1` (stereo in doubt; erythro) was 0.4 mg/kg. Turning to `CC[C@@H](O)C(C[C@H](C)N(C)C)(c1ccccc1)c1ccccc1`, the 50% effect level (ED50) was put at a dose of 63.7 mg/kg. This ED50 lies about 160-fold higher than the previous one. To `CC[C@H](O)C(C[C@H](C)N(C)C)(c1ccccc1)c1ccccc1` belongs 3.5 mg/kg; to `CCC(O)C(C[C@@H](C)NC)(c1ccccc1)c1ccccc1` (some centres not stated), 17.7 mg/kg. On to `CC[C@H](O)C(c1ccccc1)(c1ccccc1)[C@@H](C)CN(C)C`, for which it took a dose of 60.7 mg/kg to reach the 50% effect level (ED50). The molecule `CCC(=O)C(C[C@H](C)N(C)C)(c1ccccc1)c1ccccc1` showed an ED50 of 25.7 mg/kg. The value for `CC[C@@H](O)C(C[C@@H](C)N(C)C)(c1ccccc1)c1ccccc1` was 24.7 mg/kg.

As to `CCC(=O)C(c1ccccc1)(c1ccccc1)[C@@H](C)CN(C)C`, it took a dose of 49.8 mg/kg to reach the 50% effect level (ED50).

Molecule `CC[C@@H](O)C(c1ccccc1)(c1ccccc1)[C@H](C)CN(C)C` gave an ED50 of 91.7 mg/kg. The value for `CC[C@H](O)C(C[C@@H](C)N(C)C)(c1ccccc1)c1ccccc1` was 7.6 mg/kg; that for `CCC(=O)C(C[C@@H](C)N(C)C)(c1ccccc1)c1ccccc1` was 0.8 mg/kg; that for `CCC(=O)C(CCN(C)C)(c1ccccc1)c1ccccc1` was 2.5 mg/kg. To `CC[C@@H](O)C(c1ccccc1)(c1ccccc1)[C@@H](C)CN(C)C` belongs 58.7 mg/kg; to `CC[C@H](O)C(c1ccccc1)(c1ccccc1)[C@H](C)CN(C)C`, 6.2 mg/kg.
